From PMC10747250, “Structure-Based Optimization of 1,2,4-Triazole-3-Thione Derivatives: Improving Inhibition of NDM-/VIM-Type Metallo-β-Lactamases and Synergistic Activity on Resistant Bacteria” (Pharmaceuticals, 2023)
Values joined by “and” are separate entries in the source; they are usually repeats but may differ in a detail not shown here. Equal entries are not always repeated. Where two headings read alike, the source gives them in different places.

Legend:
[1] = target: T1, NDM-1 (Klebsiella pneumoniae, UniProt C7C422); experiment: NDM-1 spectrophotometric enzyme inhibition assay (meropenem hydrolysis); type: biochemical; parameters: inhibition: dose or concentration left out as unconfirmed; conditions: for inhibition: 5 min, read-out: % Inib vs NDM-1; for IC50: substrate MEM 57 μM, 5 min incubation, triplicate, NI: no inhibition (<30% inhibition at 100 µM); for IC50 / Ki: 25 °C; for Ki: substrate MEM; for NDM-1 inhibitory activity: at 100 μM
T1 construct: made in house; host or cells: E. coli BL21(DE3)
Description: (§1) The synthesized compounds were all tested for their inhibitory activity against targeted MBLs using a spectrophotometric assay (Table S2). After an initial validation at fixed concentration, compounds yielding > 0% inhibition were profiled in dose–response experiments to determine their IC50. The IC50 values were determined by measuring the rate of hydrolysis of the reporter substrate meropenem MEM ([S] = 57 μM; Km = 63.4 μM) in the presence of five different inhibitor concentrations. Assays were run after a 5 min incubation. The Ki was either calculated by the Cheng–Prusoff equation assuming competitive inhibition, or, for selected inhibitors, fully determined with Dixon plots (Figure S1).
(§2) The percentage of inhibition (%Inh) of 1,2,4-triazole derivatives was determined against a panel of subclass B1 MBLs (NDM-1, VIM-1, VIM-2, and IMP-1). Each compound was initially tested at a fixed concentration for inhibitory activity vs. the targeted enzymes. For the best active inhibitors, half-maximal inhibitory concentration (IC50) and Ki values were determined. Reactions were monitored using a Jasco V-730 spectrophotometer ( JASCO EUROPE S.R.L. Via Luigi Cadorna 1 23894 Cremella (LC) Italy) using nitrocefin or meropenem as reported substrates. Compounds were dissolved in dimethyl sulfoxide (DMSO) and stored at −20 °C. For VIM-1, VIM-2, and IMP-1MBLs, assays were conducted in 20 mM of HEPES, 100 mM of NaCl, and ZnSO4 at 10 µM at pH 7.4 at 25 °C with 0.01% v/v Triton X-100 to avoid compound aggregation and promiscuous inhibition. For NDM-1, assays were conducted in 20 mM of TRIS HCl + 150 mM of NaCl at pH 7.5 at 25°C with 0.01% v/v Triton X-100 to avoid aggregation.
(§3) For all targeted proteins, the reaction was typically initiated by adding the substrate to the reaction buffer last, after a 5 min preincubation. After brief shaking, the reading was performed for a total kinetic time of 240 s at 25 °C. The IC50 values were determined by measuring the rate of hydrolysis of the reporter substrate in the presence of five different inhibitor concentrations. The binding affinity Ki was generally estimated from the determined IC50 using the Cheng–Prusoff equation as per competitive inhibition. For the best inhibitors, the mechanism of inhibition and Ki were determined with a Dixon plot (CP 22, CP 35, CP 56, and CP 57 against NDM-1; compound CP 57 against VIM-2).

[2] = target: VIM-1 (Pseudomonas aeruginosa, UniProt A0A0F7KYQ8); experiment: VIM-1 spectrophotometric enzyme inhibition assay (nitrocefin hydrolysis); type: biochemical; parameters: dose or concentration left out as unconfirmed; conditions: 5 min, read-out: % Inib vs VIM-1
Description: as §1, §2
Table S2. The inhibitory activity of 4-amino-4H-1,2,4-triazole-3-thiol derivatives discussed here. […]
Tests were conducted at 25° C by following the absorbance variation observed upon reporter substrate (Meropenem 57 μM for NDM-1, 17 μM for VIM-2) or Nitrocefin (23 μM for VIM-1). The percentage of inhibition is reported except when ≤ 15% and in this case is indicated by NI “no inhibition”. Compounds concentration was […] vs NDM-1. Assays were run after a 5-minutes incubation. […]

[3] = target: VIM-2 (Escherichia coli, UniProt Q5U7L7); experiment: VIM-2 spectrophotometric enzyme inhibition assay (meropenem hydrolysis); type: biochemical; conditions: 25 °C; for % Inib vs VIM-2: meropenem 17 μM, 5 min incubation, NI = no inhibition (≤15%)
Description: as §1, with “The IC50 values were determined by measuring the rate of hydrolysis of the reporter substrate meropenem MEM ([S] = 57 μM; Km = 63.4 μM) in the presence of five different inhibitor concentrations.” left out
as §2, §3

[4] = tested on: K. pneumoniae VA-416/02 (VIM-4); experiment: Synergy with meropenem, broth microdilution MIC; type: cell-based
Description: (§4) The potential synergistic activity of the three best inhibitors (CP 35, CP 56, and CP 57) was tested using the broth microdilution method on six MBL-producing multidrug-resistant clinical isolates. […] Although apparently modest, this increase in synergistic activity represents a significant improvement over the previous generation of triazole-thione β-lactamase inhibitors previous described by our group.

[5] = tested on: P. aeruginosa VA-182/00 (VIM-2); experiment: Synergy with meropenem, broth microdilution MIC; type: cell-based, Pseudomonas aeruginosa
Description: as §4

[6] = tested on: six MBL-producing multidrug-resistant clinical isolates; experiment: Growth inhibition by the compound tested alone; type: cell-based; conditions: 32 μg/mL, without MEM
Description: as §4

[7] = tested on: K. pneumoniae SI-1072 (NDM-1); experiment: Synergy with meropenem, broth microdilution MIC; type: cell-based
Description: as §4

[8] = tested on: K. pneumoniae SI-518 (NDM-1); experiment: Synergy with meropenem, broth microdilution MIC; type: cell-based
Description: as §4

[9] = target: MBLs; parameters: method as in PMID 36450011, PMID 31871094, PMID 32482673; conditions: cited from earlier work
[10] = Ki determined with Dixon plots, read-out: NDM-1 Ki (Dixon plots)
[11] = compound 32 μg/mL, VIM-4-producing K. pneumoniae
[12] = Ki calculated from IC50 as per competitive inhibition (Cheng–Prusoff), read-out: NDM-1 Ki (calculated from IC50)
[13] = compound 32 μg/mL, NDM-1-producing K. pneumoniae (strain not given)
[14] = Klebsiella pneumoniae, MEM alone (Cpd: None)

T1 sequence (C7C422 29-270, looked up, species assumed): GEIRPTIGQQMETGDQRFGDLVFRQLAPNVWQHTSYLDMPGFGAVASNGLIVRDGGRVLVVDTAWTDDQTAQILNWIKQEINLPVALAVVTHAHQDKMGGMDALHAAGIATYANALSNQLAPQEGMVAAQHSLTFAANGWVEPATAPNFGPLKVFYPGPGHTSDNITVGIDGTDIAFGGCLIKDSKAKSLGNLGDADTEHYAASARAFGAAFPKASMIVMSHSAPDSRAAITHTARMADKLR

With `FC(F)(F)c1ccccc1/C=N/n1cnnc1S` [CP 17, (E)-4-((2-(Trifluoromethyl)benzylidene)amino)-4H-1,2,4-triazole-3-thiol] the inhibition [1] was 51%, the IC50 [1] was > 100 µM and 226 µM and the inhibition [2] was 46%.

For `Sc1nncn1/N=C/c1cccc2ccccc12` [CP 18, (E)-4-((Naphthalen-1-ylmethylene)amino)-4H-1,2,4-triazole-3-thiol], the inhibition [1] was > 100%, the IC50 [1] was 52 ± 7.5 µM and the inhibition [2] was 33%.

For `COc1ccc(/C=N/n2cnnc2S)cc1` [CP 19, (E)-4-((4-Methoxybenzylidene)amino)-4H-1,2,4-triazole-3-thiol], the inhibition [1] was 24% and the inhibition [2] was 15%.

`COc1cccc(/C=N/n2cnnc2S)c1` [CP 20, (E)-4-((3-Methoxybenzylidene)amino)-4H-1,2,4-triazole-3-thiol] showed an inhibition [1] of 40% and an inhibition [2] of 14%.

`COc1ccccc1/C=N/n1cnnc1S` [CP 21, (E)-4-((2-Methoxybenzylidene)amino)-4H-1,2,4-triazole-3-thiol] gave an inhibition [1] of 38% and an inhibition [2] of 32%.

With `Sc1nncn1/N=C/c1cccc(Br)c1` [CP 22, (E)-4-((3-Bromobenzylidene)amino)-4H-1,2,4-triazole-3-thiol] the inhibition [1] was 68%, the IC50 [1] was 88.5 ± 3.7 µM and the Ki [1, 10] was 42.7 µM. For the same compound, the inhibition [2] was 46%.

Compound `Sc1nncn1/N=C/c1ccccc1Br` [CP 23, (E)-4-((2-Bromobenzylidene)amino)-4H-1,2,4-triazole-3-thiol] has an inhibition [1] of 67% and an IC50 [1] of 83 ± 3.3 µM.

Work on `Sc1nncn1/N=C/c1ccc(Br)cc1` [CP 24, (E)-4-((4-Bromobenzylidene)amino)-4H-1,2,4-triazole-3-thiol] yielded an inhibition [1] of 64%, an IC50 [1] of 83.1 ± 2.7 µM and an inhibition [2] of 28%.

For `O=C(O)c1ccccc1/C=N/n1cnnc1S` [CP 29, (E)-2-(((3-Mercapto-4H-1,2,4-triazol-4-yl)imino)methyl)benzoic acid], the NDM-1 inhibitory activity [1] was “no inhibitory activity”, the IC50 [1] was > 100 µM and the inhibition [2] was 17%.

For `O=C(O)c1ccc(/C=N/n2cnnc2S)cc1` [CP 30, (E)-4-(((3-Mercapto-4H-1,2,4-triazol-4-yl)imino)methyl)benzoic acid], the NDM-1 inhibitory activity [1] was “no inhibitory activity”, the IC50 [1] was > 100 µM and the inhibition [2] was 18%.

With `N#Cc1ccccc1/C=N/n1cnnc1S` [CP 31, (E)-2-(((3-Mercapto-4H-1,2,4-triazol-4-yl)imino)methyl)benzonitrile] the inhibition [1] was 10%.

For `Sc1nncn1/N=C/c1ccccn1` [CP 32, (E)-4-((Pyridin-2-ylmethylene)amino)-4H-1,2,4-triazole-3-thiol], the inhibition [1] was 20% and the inhibition [2] was 17%.

With `FC(F)(F)c1nnc(S)n1/N=C/c1cccc(Br)c1` [CP 35, (E)-4-((3-Bromobenzylidene)amino)-5-(trifluoromethyl)-4H-1,2,4-triazole-3-thiol] the Ki [1, 10] was 25.8 µM, the “% Inib vs VIM-2” value [3] was 53% and the “synergistic activity with MEM” value [4, 11] was “no synergistic activity at all”. For the same compound, the “synergistic activity with MEM” value ([5]; compound 32 μg/mL, VIM-2 P. aeruginosa) was “no synergistic activity at all” and the “growth inhibition, compound tested alone” value [6] was “no growth inhibition”.

Work on `O=C(O)c1ccccc1/C=N/n1c(S)nnc1C(F)(F)F` [CP 45, (E)-2-(((3-Mercapto-5-(trifluoromethyl)-4H-1,2,4-triazol-4-yl)imino)methyl)benzoic acid] yielded a Ki [1, 12] of 83 µM.

With `FC(F)(F)c1nnc(S)n1/N=C/c1nn[nH]n1` [CP 46, (E)-4-(((2H-Tetrazol-5-yl)methylene)amino)-5-(trifluoromethyl)-4H-1,2,4-triazole-3-thiol] the “% Inib vs VIM-2” value [3] was 42%.

In the case of `FC(F)(F)c1ccc(-c2nnc(S)n2/N=C/c2cccc(Br)c2)cc1` [CP 55, (E)-4-((3-Bromobenzylidene)amino)-5-(4-(trifluoromethyl)phenyl)-4H-1,2,4-triazole-3-thiol], the Ki [1, 12] is reported as 220 µM.

In the case of `O=C(O)c1cccc(/C=N/n2c(S)nnc2-c2ccc(C(F)(F)F)cc2)c1` [CP 56, (E)-3-(((3-Mercapto-5-(4-(trifluoromethyl)phenyl)-4H-1,2,4-triazol-4-yl)imino)methyl)benzoic acid], the “% Inib vs VIM-2” value [3] is reported as 42%, the “synergistic activity with MEM” value [4, 11] is reported as “detectable synergistic effect” and the “growth inhibition, compound tested alone” value [6] is reported as “no growth inhibition”.

With `O=C(O)c1ccccc1/C=N/n1c(S)nnc1-c1ccc(C(F)(F)F)cc1` [CP 57, (E)-2-(((3-Mercapto-5-(4-(trifluoromethyl)phenyl)-4H-1,2,4-triazol-4-yl)imino)methyl)benzoic acid] the Ki [1, 10] was 5.59 µM and 5.6 µM, the “% Inib vs VIM-2” value [3] was > 100% and the Ki ([3]; substrate MEM, Ki determined with Dixon plot, read-out: VIM-2 Ki (Dixon plots)) was 4.14 µM and 4.1 µM. For the same compound, the “reduction of meropenem MIC” value [7, 13] was “four-fold”, the “reduction of meropenem MIC” value [8, 13] was “four-fold” and the “reduction of meropenem MIC” value [4, 11] was “four-fold”. For the same compound, the “synergistic activity with MEM” value [4, 11] was “detectable synergistic effect” and the “growth inhibition, compound tested alone” value [6] was “no growth inhibition”.

In the case of `FC(F)(F)c1ccc(-c2nnc(S)n2/N=C/c2nn[nH]n2)cc1` [CP 58, (E)-4-(((2H-Tetrazol-5-yl)methylene)amino)-5-(4-(trifluoromethyl)phenyl)-4H-1,2,4-triazole-3-thiol], the “% Inib vs VIM-2” value [3] is reported as 53%.

`C[C@@H](O)[C@H]1C(=O)N2C(C(=O)O)=C(S[C@@H]3CN[C@H](C(=O)N(C)C)C3)[C@H](C)[C@H]12` [MEM, meropenem, reference compound] showed an MIC [7, 14] of 128 µg/mL, an MIC [8, 14] of 128 µg/mL and an MIC [4, 14] of 16 µg/mL. For the same compound, the MIC ([5]; Pseudomonas aeruginosa, MEM alone (Cpd: None)) was 256 µg/mL.

For `O=C(O)c1c(F)ccc2c1OB(O)[C@@H]1C[C@H]21` [QPX7728], the Ki values [9] is listed as “low nanomolar range”.

In the case of `NCCN[C@H]1CC[C@H](CC(=O)N[C@H]2Cc3cccc(C(=O)O)c3OB2O)CC1` [taniborbactam], the Ki values [9] is given as “low nanomolar range”.
